Results reported in patent US10294246B2, “Substituted boronic acids and boronate esters as immunoproteasome inhibitors” (MERCK PATENT GMBH, priority 2014, dated 2019).

How the values were obtained:
[1] = biological target: LMP7 subunit of the immunoproteasome (Homo sapiens (Human), UniProt P28062); details: Singh et al., Br. J. Hematology 152(2): 155-163; cited from earlier work
[2] = biological target: human immunoproteasome (LMP7) (Homo sapiens (Human), UniProt P28062); experiment: Determination of LMP7 activity (fluorescence intensity assay, Suc-LLVY-AMC); assay type: biochemical; details: for Selectivity LMP7 vs Beta5: LMP7 versus Beta5; for IC50: purified human immunoproteasome 0.25 nM, Suc-LLVY-AMC 40 μM
Method in brief: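 0.25 nM purified human immunoproteasome preincubated 20 min at 25 °C with serially diluted compounds in 50 mM Tris pH 7.4, 0.03% SDS, 1 mM EDTA, 1% DMSO. Reaction started with 40 μM Suc-LLVY-AMC, run 60 min at 37 °C. Fluorescence read at ex 350/em 450 nm.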

[3] = biological target: human constitutive proteasome (Beta5) (Homo sapiens (Human), UniProt P28074); experiment: Determination of Beta5 activity (fluorescence intensity assay, Suc-LLVY-AMC); assay type: biochemical; details: purified human constitutive proteasome 1.25 nM, Suc-LLVY-AMC 40 μM
Method in brief: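 Purified constitutive proteasome (1.25 nM) was preincubated with compounds 20 min at 25 °C in 50 mM Tris pH 7.4, 0.03% SDS, 1 mM EDTA, 1% DMSO. Suc-LLVY-AMC (40 μM) was then added for 60 min at 37 °C. AMC fluorescence was read at ex 350/em 450 nm.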

Row | Structure (SMILES) | Selectivity LMP7 vs Beta5 [2] | IC50 [2] [nM] | IC50 [3] [nM] | selectivity for the LMP7 subunit of the immunoproteasome [1] [fold]
1 | CC1=C(C(=O)N[C@H](C)C(=O)N[C@@H](Cc2c[nH]c3ccccc23)C(=O)N[C@@H](Cc2ccccc2)C(=O)[C@@]2(C)CO2)Cc2ccccc21 [PR-924] | – | – | – | 100
2 | O=C(Cc1ccccc1)NC(Cc1coc2c(F)cccc12)B(O)O (stereo not shown) [Compound No. 121, [2-(7-fluorobenzofuran-3-yl)-1-[(2-phenylacetyl)amino]ethyl]boronic acid] | +++++ (Selectivity ≥ 100) | < 50 | 500 to 5000 | –

Continued, in another order:

Row | Selectivity LMP7 vs Beta5 [2] | IC50 [2] [nM] | IC50 [3] [nM] | Structure (SMILES) | selectivity for the LMP7 subunit of the immunoproteasome [1] [fold]
3 | +++++ (Selectivity ≥ 100) | < 50 | 50 to 500 | O=C(CCOc1ccccc1)N[C@@H](C[C@@H]1COc2ccccc21)B(O)O [Compound No. 136, [(1R)-2-[(3S)-2,3-dihydrobenzofuran-3-yl]-1-(3-phenoxypropanoylamino)ethyl]boronic acid] | –
4 | ++++ (70 ≤ Selectivity < 100) | < 50 | 500 to 5000 | CCNC(=O)c1ccccc1CC(=O)N[C@@H](Cc1coc2ccccc12)B(O)O [Compound No. 65, [(1R)-2-(benzofuran-3-yl)-1-[[2-[2-(ethylcarbamoyl)phenyl]acetyl]-amino]ethyl]boronic acid] | –
5 | +++++ (Selectivity ≥ 100) | < 50 | 500 to 5000 | O=C(Cc1ccccc1C(=O)N1CCOCC1)N[C@@H](Cc1coc2ccccc12)B(O)O [Compound No. 63, [(1R)-2-(benzofuran-3-yl)-1-[[2-[2-(morpholine-4-carbonyl)phenyl]-acetyl]amino]ethyl]boronic acid] | –
